Earlier results on 1 compound are cited in EP1323421A1 (priority 2001, dated 2003).

Molecules are shown by their SMILES. Where two headings read alike, the source gives them in different places. Bounds are passed on as bounds.

Data set [1] concerns plasma proteins. The following applies: mainly to alpha and beta globulins.
Test in data set [2]: not given
The source holds these as a separate data set.

Test in data set [3]: not given
This is another data set of the same source.

The conditions of data set [4]: in vivo.
Where [5] appears, read: intravenous single dose of about 0.3 mg.

As to `CO[C@]12CC[C@@]3(C[C@@H]1[C@](C)(O)C(C)(C)C)[C@H]1Cc4ccc(O)c5c4[C@@]3(CCN1CC1CC1)[C@H]2O5` [buprenorphine, 21-cyclopropyl-7.varies.-[(S)-1-hydroxy-1,2,2-trimethylpropyl]-6,14-endo-e thano-6,7,8,14-tetrahydrooripavine], the “bound to plasma proteins” value in data set [1] is recorded as “approximately 96%”. In addition, the Tmax reads like this: (0.4 mg sublingual dose) 210.+-.40 minutes; (0.8 mg sublingual dose) 192.+-.49 minutes. In addition, the systemic availability is on record as 57.7% (0.4 mg sublingual dose) and 54.1% (0.8 mg sublingual dose). Also, the Total plasma clearance entry (conscious postoperative patients) is given as “approximately 1.28 I/minute”. For the same compound, under “in vivo”, the hepatic extraction ratio result is “approximately 1”. For the same compound, the Oral bioavailability (in vivo, po) is given as about 15%. The “mean peak plasma buprenorphine concentrations” value (intramuscular second 0.3-mg dose 3 hours after the initial intravenous dose) is recorded as “about 3.6 ng/ml”. The plasma concentrations result reads like this: (intramuscular second 0.3-mg dose, after about 3 hours) “about 0.4 ng/ml”; (intravenous about 0.3 mg, after about 5 minutes) “about 9 ng/ml”; (intravenous about 0.3 mg, after about 3 hours) “about 0.4 ng/ml”. For the same compound, under setting [5], the “mean peak plasma drug concentrations” value is given as “about 18 ng/ml”. The “time of mean peak plasma drug concentrations” value under setting [5] is at most 2 min. The “time to highest concentrations in the liver” value in data set [2] (intramuscular administration in rats) is at most 40 min; in data set [2] (oral administration in rats), at most 10 min. Besides, in data set [3] (epidural application, 4 µg/kg (Batra) or 2 µg/kg (Drenger [with dogs])), the “influence on the function of bladder or urethra” value is given as “does not have a significant influence”. Further, the “cases showing urinary retention” value in data set [3] (i.v. application of 0.3 mg, patients of approx. 70 kg (4.3 µg/kg), Malinovsky) is reported as 5 out of 10. The urinary retention result in data set [3] (sublingual application of 400µg (~ 5.7 µg/kg), case shown by Murray) is recorded as “urinary retention was seen”. For the same compound, the “analgesic potency relative to meperidine” value in data set [4] is recorded as “about 600 times”. Also, the “analgesic potency relative to pentazocine” value in data set [4] is reported as “about 200 times”. In addition, the “mean duration of analgesia” value in data set [4] is “six”.
